Results on 3 compounds are retold here after article PMC5318888, “SAMHD1 enhances nucleoside-analogue efficacy against HIV-1 in myeloid cells” (Scientific Reports, 2017).

As usually defined, the CC50 is the concentration that lowers cell viability or growth by half.

The subject of data set [1] is HIV-1-GFP. In words: microbe, parasite or virus in culture. Format: cell-based. The procedure: Cells were then infected with HIV-1-GFP by spinoculation at 800 × g for 90 min in the presence of 1 μg/mL polybrene, and further incubated at 37 °C in 5% CO2 for 72 h. […] Cells were then infected with HIV-1-GFP by spinoculation at 800 × g for 90 min in the presence of 1 μg/mL polybrene, and further incubated at 37 °C in 5% CO2 for 72 h. Non-dividing U937 and THP-1 (PMA^+) cells (6 × 10^5 cells/mL) were differentiated by addition of 100 nM PMA (PMA^+) for 48 h and treated with increasing concentrations of nucleoside analogues as described above. Cells were then infected with HIV-1-GFP in the presence of 1 μg/mL polybrene and further incubated at 37 °C in 5% CO2 for 72 h. The percentage of GFP^+cells was determined by one-colour flow cytometry using a Fortessa X20 analyser (BD Biosciences) and the data analysed using the FlowJo software suite.
(§1) Non-ambiguous values were subjected to a replicate test to calculate confidence intervals of 95% (95% CI). CC50 and EC50 values were determined for at least two independent experiments for each nucleoside analogue and a selectivity index (SI) also calculated, (SI = CC50/EC50). EC50 values for each replicate were used to perform an unpaired two-tailed t-test to determine significant differences between U937 cells expressing SAMHD1 wt or HD206-7AA mutant and THP-1 cells expressing Vpx or untransduced cells. P values of <0.005 were considered statistically significant.

The subject of data set [2] is HIV-1-GFP. Briefly: microbe, parasite or virus in culture. Format: cell-based. Here is the method: H9 and Jurkat cells (6 × 10^5 cells/mL) were treated with increasing concentrations of nucleoside analogues (0–200 μM; except CFB, 0–1.6 μM) and incubated for 4 h at 37 °C in 5% CO2. Cells were then infected with HIV-1-GFP by spinoculation at 800 × g for 90 min in the presence of 1 μg/mL polybrene, and further incubated at 37 °C in 5% CO2 for 72 h. Undifferentiated U937 and THP-1 (PMA^−) cells (6 × 10^5 cells/mL) were treated with increasing concentrations of nucleoside analogues (0–200 μM; except CFB, 0–1.6 μM) and incubated at 37 °C in 5% CO2 for 48 h. Cells were then infected with HIV-1-GFP by spinoculation at 800 × g for 90 min in the presence of 1 μg/mL polybrene, and further incubated at 37 °C in 5% CO2 for 72 h. Non-dividing U937 and THP-1 (PMA^+) cells (6 × 10^5 cells/mL) were differentiated by addition of 100 nM PMA (PMA^+) for 48 h and treated with increasing concentrations of nucleoside analogues as described above. Cells were then infected with HIV-1-GFP in the presence of 1 μg/mL polybrene and further incubated at 37 °C in 5% CO2 for 72 h. The percentage of GFP^+cells was determined by one-colour flow cytometry using a Fortessa X20 analyser (BD Biosciences) and the data analysed using the FlowJo software suite.
as §1
The source holds these as a separate data set.

Data set [3] deals with HIV-1-GFP. In words: Anti-HIV-1 activity in U937 cells transduced with wt SAMHD1 or HD206-7AA mutant. Format: cell-based. The procedure: (§2) Antiviral assays were further performed in monocytoid cells transduced with YFP-expressing VLPs containing WT SAMHD1, HD206-7AA or Vpx. Briefly, U937 cells (6 × 10^5 cells/mL) were transduced with WT SAMHD1-YFP or HD206-7AA-YFP VLPs by spinoculation at 800 × g for 90 min in the presence of 1 μg/mL polybrene. Similarly, THP-1 cells (6 × 10^5 cells/mL) were transduced with Vpx-YFP VLPs by spinoculation at 800 × g for 90 min in the presence of 1 μg/mL polybrene. Cells were incubated at 37 °C in 5% CO2 and after 72 h, PMA^+ cells (6 × 10^5 cells/mL) were treated with 100 nM PMA and PMA^− cells (7.5 × 10^4 cells/mL) were left untreated. Cells were then incubated at 37 °C in 5% CO2 for 48 h. Nucleoside analogues were added at increasing concentrations (0–200 μM; except CFB, 0–1.6 μM) and cells were further incubated for 48 h. PMA^− cells were then infected with HIV-1-GFP by spinoculation at 800 × g for 90 min in the presence of 1 μg/mL polybrene, PMA^+ cells were infected with HIV-1-GFP in the presence of 1 μg/mL polybrene only. Cells were incubated for 72 h at 37 °C in 5% CO2 and then analysed by two-colour flow cytometry using a Fortessa X20 analyser (BD Biosciences). Data were analysed using the FlowJo software suite.
as §1, with “The cytotoxic concentration of nucleoside analogue that inhibits cell viability by 50% (CC50) and the effective concentration of nucleoside analogue that inhibits infection of cells by 50% (EC50) were calculated for each independent experiment by non-linear regression using GraphPad Prism v6.00 for Windows (GraphPad Software, San Diego, CA). Non-ambiguous” for “Non-ambiguous”

Data set [4] relates to HIV-1-GFP. Briefly: Anti-HIV-1 activity in THP-1 cells with or without Vpx transduction. The data set is classed as cell-based. Here is the method:
as §2
as §1, with “The cytotoxic concentration of nucleoside analogue that inhibits cell viability by 50% (CC50) and the effective concentration of nucleoside analogue that inhibits infection of cells by 50% (EC50) were calculated for each independent experiment by non-linear regression using GraphPad Prism v6.00 for Windows (GraphPad Software, San Diego, CA). Non-ambiguous” for “Non-ambiguous”

Data set [5] is described as follows: Cytotoxicity, live cells by flow cytometry, H9 cells. Format: cell-based. The note with it: human. Here is the method: (§3) H9, Jurkat and undifferentiated U937 and THP-1 (PMA^−) cells (6 × 10^5 cells/mL) were treated with increasing concentrations of nucleoside analogues (0–200 μM; except CFB, 0–1.6 μM) and incubated at 37 °C in 5% CO2 for 48 h. Medium was then replaced and cells were further incubated for 72 h. Non-dividing U937 and THP-1 (PMA^+) cells (6 × 10^5 cells/mL) were differentiated by addition of 100 nM phorbol-12-myristate-13-acetate (PMA^+) for 48 h and then treated with increasing concentrations of nucleoside analogues as described above. The percentage of live cells was determined by flow cytometry using Live/Dead fixable blue-fluorescent dyes (Invitrogen) and a Fortessa X20 analyser (BD Biosciences). Data were analysed using the FlowJo software suite.
as §1, with “The cytotoxic concentration of nucleoside analogue that inhibits cell viability by 50% (CC50) and the effective concentration of nucleoside analogue that inhibits infection of cells by 50% (EC50) were calculated for each independent experiment by non-linear regression using GraphPad Prism v6.00 for Windows (GraphPad Software, San Diego, CA). Non-ambiguous” for “Non-ambiguous”
(Flow cytometry measures light scatter and fluorescence of single cells or particles in a stream.)

Data set [6] can be described thus: Cytotoxicity, live cells by flow cytometry, Jurkat cells. The data set is classed as cell-based. The note with it: human. The procedure: as §3
as §1, with “The cytotoxic concentration of nucleoside analogue that inhibits cell viability by 50% (CC50) and the effective concentration of nucleoside analogue that inhibits infection of cells by 50% (EC50) were calculated for each independent experiment by non-linear regression using GraphPad Prism v6.00 for Windows (GraphPad Software, San Diego, CA). Non-ambiguous” for “Non-ambiguous”

The target of the next data set is T1, SAMHD1 (Homo sapiens, UniProt Q9Y3Z3).
T1 construct: The final concentrations were 100 nM SAMHD1(115–626), 10 nM Ppx1; strep-tag; made in house
Also noted: method as in PMID 25331707. Conditions: previous in vitro assays; cited from earlier work.

Some results are limits rather than exact numbers.

T1 sequence (Q9Y3Z3 115-626): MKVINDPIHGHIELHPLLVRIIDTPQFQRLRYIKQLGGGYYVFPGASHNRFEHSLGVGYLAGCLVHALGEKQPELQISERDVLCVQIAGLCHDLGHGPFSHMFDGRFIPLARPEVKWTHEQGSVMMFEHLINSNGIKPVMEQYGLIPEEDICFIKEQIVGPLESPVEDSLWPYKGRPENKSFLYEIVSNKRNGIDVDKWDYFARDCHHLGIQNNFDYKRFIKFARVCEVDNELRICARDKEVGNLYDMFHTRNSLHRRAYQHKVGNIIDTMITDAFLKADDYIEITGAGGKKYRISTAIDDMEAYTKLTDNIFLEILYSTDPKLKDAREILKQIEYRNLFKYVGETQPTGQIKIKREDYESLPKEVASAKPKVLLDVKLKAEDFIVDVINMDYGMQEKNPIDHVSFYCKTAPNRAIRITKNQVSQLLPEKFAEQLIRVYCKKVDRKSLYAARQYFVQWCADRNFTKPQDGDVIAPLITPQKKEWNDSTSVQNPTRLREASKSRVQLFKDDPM

On to `Nc1nc(Cl)nc2c1ncn2[C@@H]1O[C@H](CO)[C@@H](O)[C@@H]1F` [CFB, 2-chloro-9-(2′-Deoxy-2′-fluoro-beta-D-arabinofuranosyl)adenine], for which the “SI, selectivity index CC50/EC50” value in the data set on HIV-1-GFP [1] (H9 cells) is below 1; with HIV-1-GFP [1] (Jurkat cells), below 1; in the data set on HIV-1-GFP [2] (THP-1 PMA+), above 533; in the data set on HIV-1-GFP [2] (THP-1 PMA−), below 1; in the data set with HIV-1-GFP [2] (U937 PMA+), above 43; with HIV-1-GFP [2] (U937 PMA−), below 1. Further, the EC50 in the data set on HIV-1-GFP [1] (Human immunodeficiency virus 1, H9, read-out: EC50 anti-HIV-1, H9 cells) turned out to be 94 nM; in the data set on HIV-1-GFP [1] (Human immunodeficiency virus 1, Jurkat, read-out: EC50 anti-HIV-1, Jurkat cells) it was 663 nM; in the data set with HIV-1-GFP [2] (Human immunodeficiency virus 1, THP-1, read-out: EC50 [95% CI], THP1 PMA+), 3 nM; in the data set on HIV-1-GFP [2] (Human immunodeficiency virus 1, THP-1, read-out: EC50 [95% CI], THP1 PMA−) it was 132 nM; with HIV-1-GFP [2] (Human immunodeficiency virus 1, U-937, read-out: EC50 [95% CI], U937 PMA+) it was 37 nM; in the data set with HIV-1-GFP [2] (Human immunodeficiency virus 1, U-937, read-out: EC50 [95% CI], U937 PMA−), 119 nM. In addition, the EC50 in the data set with HIV-1-GFP [3] (Human immunodeficiency virus 1, U-937, read-out: EC50 [95% CI], U937 PMA+, HD206/7AA+ population) worked out at 29 nM; in the data set with HIV-1-GFP [3] (Human immunodeficiency virus 1, U-937, read-out: EC50 [95% CI], U937 PMA+, SAMHD1+ population), 1.3 nM; in the data set on HIV-1-GFP [3] (Human immunodeficiency virus 1, U-937, read-out: EC50 [95% CI], U937 PMA−, HD206/7AA+ population) it was 108 nM; in the data set on HIV-1-GFP [3] (Human immunodeficiency virus 1, U-937, read-out: EC50 [95% CI], U937 PMA−, SAMHD1+ population) it was 138 nM; in the data set with HIV-1-GFP [4] (Human immunodeficiency virus 1, THP-1, read-out: EC50 [95% CI], THP1 PMA+, Vpx+), 12 nM; with HIV-1-GFP [4] (Human immunodeficiency virus 1, THP-1, read-out: EC50 [95% CI], THP1 PMA+, Vpx−), 3 nM. The EC50 in the data set on HIV-1-GFP [4] (Human immunodeficiency virus 1, THP-1, read-out: EC50 [95% CI], THP1 PMA−, Vpx+) is above 1600 nM; with HIV-1-GFP [4] (Human immunodeficiency virus 1, THP-1, read-out: EC50 [95% CI], THP1 PMA−, Vpx−), 340 nM. Moreover, the figures for the “fold increase of anti-HIV-1 activity in PMA+ over PMA− cells” value with HIV-1-GFP [2] (THP-1) and with HIV-1-GFP [2] (U937) were 44 fold and 3 fold, respectively. For the same compound, the “Fold (EC50 HD206/7AA vs SAMHD1)” value with HIV-1-GFP [3] (U937 PMA+) is listed as 22 fold; in the data set on HIV-1-GFP [3] (U937 PMA−) it was 1 fold. Moreover, the “Fold (EC50 Vpx+ vs Vpx−)” value is given as 4 fold with HIV-1-GFP [4] (THP1 PMA+) and above 5 fold in the data set with HIV-1-GFP [4] (THP1 PMA−). Besides, the CC50 at 48 h was 31 nM in data set [5] and 49 nM in data set [6].
For `Nc1nc(Cl)nc2c1ncn2[C@@H]1O[C@H](COP(=O)(O)OP(=O)(O)OP(=O)(O)O)[C@@H](O)[C@@H]1F` [CFB-TP, Clofarabine triphosphate], at SAMHD1, the “hydrolysis by SAMHD1 (substrate)” value was “substrate hydrolysed by SAMHD1 at a rate comparable to natural dNTP substrates”.
For the compound `Nc1nc(O)c2ncn(COC(CO)COP(=O)(O)OP(=O)(O)OP(=O)(O)O)c2n1` (stereo not shown) [GCV-TP, Ganciclovir triphosphate], at SAMHD1, the “allosteric activation of SAMHD1” value was “displayed no activation of SAMHD1” and the “hydrolysis by SAMHD1 (substrate)” value is given as “non-hydrolysable”.
